Data on twelve compounds can be found in patent US12570655B2, “Cysteine covalent modifiers of AKT1 and uses thereof” (Terremoto Biosciences, Inc., priority 2023, dated 2026).

pIC50: −log10 of the molar value. Like-named read-outs stand apart in the source and are kept apart here.

Assay type in all cases: cell-based
The target of one assay is T1, AKT1 E17K (Homo sapiens, UniProt P31749, E17K).
T1 construct: expressed in transfected cells; host or cells: HEK293
In words: Live cell AKT1 E17K target engagement by NanoBRET competitive probe displacement. To be noted: HEK293 cells transfected with kinase-NanoLuciferase fusion, 2 h at 37° C. Put shortly:
(§1)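 Steps: overnight transfection of HEK293 with kinase-NanoLuc plasmids; addition of compound dilutions and tracer (~EC50); 2 h incubation at 37 °C; substrate plus extracellular luciferase inhibitor; luminescence at 460 and 600 nm. IC50 values came from fitting the BRET ratio to a Hill equation.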

A further assay has as its target T2, AKT1 WT (Homo sapiens, UniProt P31749).
T2 construct: expressed in transfected cells; host or cells: HEK293
In words: Live cell AKT1 WT target engagement by NanoBRET competitive probe displacement. To be noted: HEK293 cells transfected with kinase-NanoLuciferase fusion, 2 h at 37° C. A digest of the protocol:
as §1

The next assay deals with T3, AKT2 (Homo sapiens, UniProt P31751).
T3 construct: expressed in transfected cells; host or cells: HEK293
T3 sequence (P31751 whole entry): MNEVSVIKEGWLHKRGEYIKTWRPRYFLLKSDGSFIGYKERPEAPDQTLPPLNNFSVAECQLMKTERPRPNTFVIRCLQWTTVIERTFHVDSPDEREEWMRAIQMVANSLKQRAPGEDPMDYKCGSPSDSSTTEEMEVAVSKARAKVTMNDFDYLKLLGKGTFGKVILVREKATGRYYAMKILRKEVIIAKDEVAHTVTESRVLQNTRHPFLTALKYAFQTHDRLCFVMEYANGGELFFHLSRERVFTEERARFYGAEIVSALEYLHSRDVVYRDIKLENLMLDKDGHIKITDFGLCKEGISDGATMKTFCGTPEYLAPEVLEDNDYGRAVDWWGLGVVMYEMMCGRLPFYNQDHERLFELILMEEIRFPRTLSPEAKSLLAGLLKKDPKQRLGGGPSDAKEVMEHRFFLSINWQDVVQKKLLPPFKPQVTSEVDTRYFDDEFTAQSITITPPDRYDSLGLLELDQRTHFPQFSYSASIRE
Put plainly: Live cell AKT2 target engagement by NanoBRET competitive probe displacement. The conditions noted are these: HEK293 cells transfected with kinase-NanoLuciferase fusion, 2 h at 37° C. A digest of the protocol:
as §1

For assay [1], the system named is LAPC4 prostate cancer cells. Put plainly: Antiproliferative effects in LAPC4 cells (CellTiter Glo). The conditions noted are these: LAPC4 cells (AKT1 E17K allele), read-out: LAPC4 proliferation IC50. Put shortly: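 Growth inhibition is gauged by intracellular ATP content, measured with CellTiter Glo 72 h after compound addition to 1,000 seeded cells per well. IC50 derives from a Hill equation fit.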

T2 sequence (P31749 whole entry): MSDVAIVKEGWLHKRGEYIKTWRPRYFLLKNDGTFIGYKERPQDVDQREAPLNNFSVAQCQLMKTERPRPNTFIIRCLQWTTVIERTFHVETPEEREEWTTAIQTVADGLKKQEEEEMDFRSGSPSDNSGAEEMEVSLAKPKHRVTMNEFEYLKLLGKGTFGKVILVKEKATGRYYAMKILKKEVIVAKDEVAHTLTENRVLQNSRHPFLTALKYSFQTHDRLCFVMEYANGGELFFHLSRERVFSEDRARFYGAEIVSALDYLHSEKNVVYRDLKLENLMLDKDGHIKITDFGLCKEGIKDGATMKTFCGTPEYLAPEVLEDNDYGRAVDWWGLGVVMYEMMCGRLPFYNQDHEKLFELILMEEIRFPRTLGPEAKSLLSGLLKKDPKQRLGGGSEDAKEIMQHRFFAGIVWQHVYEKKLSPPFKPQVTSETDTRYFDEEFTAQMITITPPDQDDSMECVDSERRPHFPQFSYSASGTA
T1 sequence (P31749 whole entry E17K): as the sequence (P31749 whole entry) above, with E17K counted along it

Turning to `C=CC(=O)N1CCC(N[C@H]2CCc3cc(-n4c(-c5cccnc5N)nc5ccc(C6CC6)nc54)ccc32)C[C@H]1C` (single isomer, unassigned) [Example 211, 1-((2R,4*)-4-(((S)-5-(2-(2-aminopyridin-3-yl)-5-cyclopropyl-3H-imidazo[4,5-b]pyridin-3-yl)-2,3-dihydro-1H-inden-1-yl)amino)-2-methylpiperidin-1-yl)prop-2-en-1-one], the pIC50 on AKT1 E17K is 7.63; on AKT1 WT, 5.96; on AKT2 it was 7.10; in assay [1] (72 h), 6.50.
Consider `C#CC1CC(N[C@H]2CCc3cc(-n4c(-c5cccnc5N)nc5ccc(-n6cccn6)nc54)ccc32)CCN1C(=O)C=C` (single isomer, unassigned) [Example 111, 1-((2*,4*)-4-(((S)-5-(2-(2-aminopyridin-3-yl)-5-(1H-pyrazol-1-yl)-3H-imidazo[4,5-b]pyridin-3-yl)-2,3-dihydro-1H-inden-1-yl)amino)-2-ethynylpiperidin-1-yl)prop-2-en-1-one], for which the pIC50 at AKT1 E17K is 6.90; at AKT1 WT it was 7.67; at AKT2, 6.84; in assay [1] (72 h) it was 6.46.
In the case of `C=CC(=O)N1CCC(N[C@H]2CCc3cc(-n4c(-c5cccnc5N)nc5cc(C6CC6)cnc54)ccc32)CC1` [Example 199, 1-(4-{[(1S)-5-[2-(2-aminopyridin-3-yl)-6-cyclopropylimidazo[4,5-b]pyridin-3-yl]-2,3-dihydro-1H-inden-1-yl]amino}piperidin-1-yl)prop-2-en-1-one], the pIC50 is 7.17 on AKT1 E17K; 6.22 at AKT1 WT; 6.10 on AKT2; 5.62 in assay [1] (Homo sapiens, LAPC4, 72 h).
For `C=CC(=O)N1C2CCC1CC(N[C@H]1CCc3cc(-n4c(-c5cccnc5N)nc5ccc(-n6cccn6)nc54)ccc31)C2` (stereo partly drawn) [Example 27, 1-(3-(((S)-5-(2-(2-aminopyridin-3-yl)-5-(1H-pyrazol-1-yl)-3H-imidazo[4,5-b]pyridin-3-yl)-2,3-dihydro-1H-inden-1-yl)amino)-8-azabicyclo[3.2.1]octan-8-yl)prop-2-en-1-one] the same measures were 6.97, 7.40, 6.72 and 6.37.
For the compound `C=CC(=O)N1CCC(N[C@H]2CCc3cc(-n4c(-c5cccnc5N)nc5ccc(-n6cccn6)nc54)ccc32)C[C@@H]1COC` (single isomer, unassigned) [Example 165, 1-((2R,4*)-4-(((S)-5-(2-(2-aminopyridin-3-yl)-5-(1H-pyrazol-1-yl)-3H-imidazo[4,5-b]pyridin-3-yl)-2,3-dihydro-1H-inden-1-yl)amino)-2-(methoxymethyl)piperidin-1-yl)prop-2-en-1-one], the pIC50 on AKT1 E17K was 6.84; on AKT1 WT, 7.41; on AKT2, 6.79; in assay [1] (72 h) it was 6.73.
As for `C=CC(=O)N1CCC(N[C@H]2CCc3cc(-n4c(-c5cccnc5N)nc5ccc(-c6nnc(C)s6)nc54)ccc32)CC1` [Example 257, (S)-1-(4-((5-(2-(2-aminopyridin-3-yl)-5-(5-methyl-1,3,4-thiadiazol-2-yl)-3H-imidazo[4,5-b]pyridin-3-yl)-2,3-dihydro-1H-inden-1-yl)amino)piperidin-1-yl)prop-2-en-1-one], the pIC50 is 7.86 on AKT1 E17K; 6.36 on AKT1 WT; 7.14 on AKT2; 6.99 in assay [1] (Homo sapiens, LAPC4, 72 h).
For `C=CC(=O)Nc1cc(C(=O)N[C@H]2CCc3cc(-n4c(-c5cccnc5N)nc5ccc(-n6cccn6)nc54)ccc32)ccn1` [Example 11, (S)-2-acrylamido-N-(5-(2-(2-aminopyridin-3-yl)-5-(1H-pyrazol-1-yl)-3H-imidazo[4,5-b]pyridin-3-yl)-2,3-dihydro-1H-inden-1-yl)isonicotinamide] the same measures were 8.15, 8.37, 7.59 and 6.19.
For `C=CC(=O)N1CC2(CCCC(N[C@H]3CCc4cc(-n5c(-c6cccnc6N)nc6ccc(-n7cccn7)nc65)ccc43)C2)C1` (single isomer, unassigned) [Example 79, 1-((*)-6-(((S)-5-(2-(2-aminopyridin-3-yl)-5-(1H-pyrazol-1-yl)-3H-imidazo[4,5-b]pyridin-3-yl)-2,3-dihydro-1H-inden-1-yl)amino)-2-azaspiro[3.5]nonan-2-yl)prop-2-en-1-one] the same measures were 7.85, 7.92, 7.57 and 7.77.
For the compound `C=CC(=O)N1CCC(N[C@@H]2c3ccc(-n4c(-c5cccnc5N)nc5ccc(-n6ccc(F)n6)nc54)cc3CC2F)C[C@H]1C` (single isomer, unassigned) [Example 274, 1-((2R,4*)-4-(((1R,2*)-5-(2-(2-aminopyridin-3-yl)-5-(3-fluoro-1H-pyrazol-1-yl)-3H-imidazo[4,5-b]pyridin-3-yl)-2-fluoro-2,3-dihydro-1H-inden-1-yl)amino)-2-methylpiperidin-1-yl)prop-2-en-1-one], the pIC50 was 7.73 at AKT1 E17K, 6.16 at AKT1 WT, 7.03 at AKT2 and 6.49 in assay [1] (72 h).
For `C=CC(=O)N1CCC(N[C@@H]2c3ccc(-n4c(-c5cccnc5N)nc5ccc(-n6ccc(F)n6)nc54)cc3CC2F)C[C@H]1C` (single isomer, unassigned) [Example 276, 1-((2R,4*)-4-(((1R,2*)-5-(2-(2-aminopyridin-3-yl)-5-(3-fluoro-1H-pyrazol-1-yl)-3H-imidazo[4,5-b]pyridin-3-yl)-2-fluoro-2,3-dihydro-1H-inden-1-yl)amino)-2-methylpiperidin-1-yl)prop-2-en-1-one] the same measures were 7.51, 5.87, 6.97 and 6.42.
As for `C=CC(=O)N1CCC(N[C@@H]2c3ccc(-n4c(-c5cccnc5N)nc5ccc(-n6ccc(F)n6)nc54)cc3CC2F)C[C@@H]1C` (single isomer, unassigned) [Example 270, 1-((2S,4*)-4-(((1R,2*)-5-(2-(2-aminopyridin-3-yl)-5-(3-fluoro-1H-pyrazol-1-yl)-3H-imidazo[4,5-b]pyridin-3-yl)-2-fluoro-2,3-dihydro-1H-inden-1-yl)amino)-2-methylpiperidin-1-yl)prop-2-en-1-one], the pIC50 at AKT1 E17K is 8.14; at AKT1 WT, 6.79; on AKT2, 7.68; in assay [1] (72 h) it was 7.12.
Regarding `C=CC(=O)N1CC2(CCC(N[C@H]3CCc4cc(-n5c(-c6cccnc6N)nc6ccc(-n7cccn7)nc65)ccc43)C2)C1` (single isomer, unassigned) [Example 92, 1-((*)-6-(((S)-5-(2-(2-aminopyridin-3-yl)-5-(1H-pyrazol-1-yl)-3H-imidazo[4,5-b]pyridin-3-yl)-2,3-dihydro-1H-inden-1-yl)amino)-2-azaspiro[3.4]octan-2-yl)prop-2-en-1-one], the pIC50 on AKT1 E17K was 7.72; on AKT1 WT it was 8.16; at AKT2 it was 7.23; in assay [1] (72 h), 7.51.
